Assay results taken from patent EP2881399B1, “New thiosemicarbazone chelates having anticancer activity” (priority 2013, dated 2015).

Key:
Type in all cases: cell-based
K562 cells = assay: flow cytometry with Annexin V and PI dyeing (apoptosis / necrosis); conditions: K562, 72 hours at IC50 concentration; for Living cell (%) / Necrotic cell (%) / Post- apoptotic cell (%) / Pre- apoptotic cell (%): Annexin V and PI; for Dead cell (%): addition of apoptotic and necrotic cells
Description: The Figure 2 gives the flow cytometry images of K562 cells, undergoing pre-apoptosis, post-apoptosis and necrosis, which are dyed with Annexin V and PI, after being incubated with thiosemicarbazones of the invention for 72 hours. Herein the images are as follows; A) Control, B) Compound I (0.6µg/ml), C) Compound II (0.6µg/ml), D) […], and E) Compound IV (0.1µg/ml). […] The inventors have characterized cells treated with compounds I-IV in the conditions of Figure 2 in order to better observe the mechanism of action of thiosemicarbazones presented in the current invention.

[1] = test system: ECV304 (endothelial) cells; assay: cytotoxicity test (MTT), IC50 after 72 hours incubation; conditions: incubated for 72 hours
Description: (§1) IC50 (the concentration inhibiting the proliferation of 50% of cells) of these 4 new compounds presented is identified by cytotoxicity tests in K562 (leukaemia) and ECV304 (endothelial) cells. Subsequently, it is studied to understand pathway through which the death of the cells is occurred (the mechanism of action) after the cells are treated for 72 hours at these concentrations. The apoptosis is analysed with immununocytochemical methods and flow cytometry and DNA fragmentation is analysed with diphenylamine reaction. […] DNA fragmentation is found high in all experiment groups (70-80%). These rates are compatible with IC50 obtained with MTT test because IC50 is the dose which kills the 50% of the cells. […] Furthermore, this rate is compatible with the percentage of total dead cells (52-64 %) which is the addition of apoptotic and necrotic cells obtained by annexin/PI dyeing.

K562 (leukaemia) cells = assay: as above
Description: as §1

ECV304 = assay: DNA fragmentation by diphenylamine reaction; conditions: ECV304, end of 72 hours at identified IC50 concentrations
Description: (§2) IC50 (the concentration inhibiting the proliferation of 50% of cells) of these 4 new compounds presented is identified by cytotoxicity tests in K562 (leukaemia) and ECV304 (endothelial) cells. Subsequently, it is studied to understand pathway through which the death of the cells is occurred (the mechanism of action) after the cells are treated for 72 hours at these concentrations. The apoptosis is analysed with immununocytochemical methods and flow cytometry and DNA fragmentation is analysed with diphenylamine reaction. […] The inventors also analysed DNA fragmentation rates occurred in cells at the end of 72 hours at identified IC50 concentrations.

K562 = assay: DNA fragmentation by diphenylamine reaction; conditions: K562, end of 72 hours at identified IC50 concentrations
Description: as §2

[2] = K562, as listed in Table 3, rounded, the concentration applied in the flow cytometry
[3] = K562 cells, incubated for 72 hours

| Compound | Apoptosis / Necrosis ratio (K562 cells) | Living cell (%) (K562 cells) | Necrotic cell (%) (K562 cells) | Post- apoptotic cell (%) (K562 cells) | Pre- apoptotic cell (%) (K562 cells) | Dead cell (%) (K562 cells) | IC50 [1] | IC50 (K562 (leukaemia) cells; [2]) | IC50 (K562 (leukaemia) cells; [3]) | DNA fragmentation % (ECV304) | DNA fragmentation % (K562) |
| --- | --- | --- | --- | --- | --- | --- | --- | --- | --- | --- | --- |
| COc1ccc2c(c1)[O][Ni][O]c1cc(O)ccc1C=NN=C(SC)N=C2 [III, N(1)-4-hydroxysalicylidene-N(4)-4-methoxysalicylideneisothio-semicarbazidato Nickel (II)] | 11.82 | 36.11% | 3.17% | 23.23% | 37.5% | 63.89% | >5 microgram/ml | 0.6 µg/mL | 0.65 microgram/ml | 22±1.7% | 75±1.4% |
| COc1ccc2c(c1)[O][Fe]([Cl])[O]c1cc(O)ccc1C=NN=C(SC)N=C2 [Compound IV, Monochloro-N(1)-4-hydroxysalicylidene-N(4)-4-methoxy-salicylideneisothiosemicarbazidato Iron (III)] | 17.77 | 41.07% | 2.11% | 19.32% | 37.5% | 58.93% | >5 microgram/ml | 0.1 µg/mL | 0.1 microgram/ml | 28±2.4% | 84±1.4% |
| Monochloro-N(1)-3--hydroxysalicylidene-N(4)-4-methox salicylideneisothiosemicarbazidato Iron (III) [Compound II] | 9.80 | 47.4% | 3.15% | 18.54% | 30.9% | 52.6% | >5 microgram/ml | 0.6 µg/mL | 0.62 microgram/ml | 18±2.1% | 79±0.7% |
| COc1ccc2c(c1)[O][Ni][O]c1c(O)cccc1C=NN=C(SC)N=C2 [Compound I, N(1)-3-hydroxysalicylidene-N(4)-4-methoxysalicylideneisothio-semicarbazidato Nickel (II)] | 13.56 | 35.18% | 2.57% | 27.39% | 34.85% | 64.82% | >5 microgram/ml | 0.6 µg/mL | 0.61 microgram/ml | 20±0.5% | 80±1.4% |
